According to PubChem BioAssay (NCI):
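Results reflect a 48-hour exposure of cells in 96-well plates to compound at five concentrations. The concentration for full growth arrest is given as TGI.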

Key:
Experiment in all cases: NCI-60 cell line screen, 48 h
SN12C renal = system: SN12C renal
DU-145 prostate = system: DU-145 prostate
RPMI-8226 leukemia = system: RPMI-8226 leukemia
HOP-92 NSCLC = system: HOP-92 NSCLC
OVCAR-8 ovarian = system: OVCAR-8 ovarian
HCT-116 colon = system: HCT-116 colon
OVCAR-4 ovarian = system: OVCAR-4 ovarian
HS 578T breast = system: HS 578T breast
NCI-H23 lung = system: NCI-H23 lung
UACC-257 melanoma = system: UACC-257 melanoma
HCC-2998 colon = system: HCC-2998 colon
SR leukemia = system: SR leukemia

Compound | TGI (SN12C renal) [µM] | TGI (DU-145 prostate) [µM] | TGI (RPMI-8226 leukemia) [µM] | TGI (HOP-92 NSCLC) [µM] | TGI (OVCAR-8 ovarian) [µM] | TGI (HCT-116 colon) [µM] | TGI (OVCAR-4 ovarian) [µM] | TGI (HS 578T breast) [µM] | TGI (NCI-H23 lung) [µM] | TGI (UACC-257 melanoma) [µM] | TGI (HCC-2998 colon) [µM] | TGI (SR leukemia) [µM]
O=C(O)CNC(=O)c1ccc([As](=O)(O)O)cc1 | > 100 | > 100 | > 100 | > 100 | > 100 | > 100 | > 100 | > 100 | > 100 |  |  | 
O=C1NC(=S)NC(=O)C1C(c1ccccc1[N+](=O)[O-])C1C(=O)NC(=S)NC1=O | > 100 | > 100 | > 100 | > 100 | > 100 | > 100 | > 100 | > 100 | > 100 | > 100 |  | 
CC(=O)/C(=C/n1c(=S)sc2ccccc21)C(=O)Nc1ccccc1C | > 100 | > 100 |  | > 100 | > 100 | > 100 | > 100 |  | > 100 | > 100 | > 100 | 
CC(C)(CO)N1C(=O)c2ccccc2C1(O)c1ccc(Cl)cc1 (stereo not given) | > 100 | > 100 | > 100 |  | > 100 | > 100 | > 100 | > 100 | > 100 | > 100 | > 100 | 
COC1C=CC23c4cc5c(cc4C(O)OC2CN(C)C3C1)OCO5 (stereo not given) | 7.88 |  | 8.34 |  | 9.2 | 10.1 | 9.77 |  | 27.4 | 7.3 | 5.71 | 4.59
CC(C)=CC1C(C(=O)O)C1(C)C (stereo not given) | > 750 |  | > 750 | > 750 | > 750 | > 750 | > 750 |  | > 750 | > 750 | > 750 | 
CC(=O)CC(=O)c1cc2c(=O)oc(C)cc2oc1=O | > 37.5 | > 37.5 | > 37.5 |  | > 37.5 | > 37.5 | > 37.5 |  | > 37.5 | > 37.5 | > 37.5 | > 37.5
O=C(OCc1ccccc1)OOC(=O)OCc1ccccc1 | > 100 |  | > 100 | > 100 |  | > 100 | > 100 |  | > 100 | > 100 | > 100 | > 100
C[C@]12CC/C(=N\O)C=C1CC[C@@H]1[C@@H]2CC[C@]2(C)C(=N/O)/C(=C/c3cccnc3)C[C@@H]12 | 43.5 | > 100 | 8.95 | 63.5 | 80.3 | > 100 | 65.3 | 18.6 | > 100 | 57.2 |  | 
c1ccc(N=c2snc(-c3ccccc3)s2)cc1 | > 100 |  | > 100 |  | > 100 | > 100 | > 100 |  |  | > 100 | > 100 | > 100
CC(C)CCNC(=O)c1ccc(CNC(=O)/C=C/c2ccc(OCc3ccccc3)cc2)cc1 | > 100 | > 100 | > 100 | > 100 | > 100 | > 100 | > 100 |  | > 100 | > 100 | > 100 | > 100
Cc1ccc(C(=O)Nc2ccc(CP(=O)(O)O)cc2)cc1NC(=O)c1cccc(NC(=O)Nc2cccc(C(=O)Nc3cc(C(=O)Nc4ccc(CP(=O)(O)O)cc4)ccc3C)c2)c1 | > 100 | > 100 | > 100 |  | > 100 | > 100 | > 100 | > 100 | > 100 | > 100 | > 100 | 
N#CSCc1cccc(Nc2cc(=O)[nH]c(=O)[nH]2)c1 | > 100 |  | > 100 | 85.7 | > 100 | > 100 | > 100 | > 100 | > 100 | > 100 | > 100 | 
COc1ccc(CNc2nc3ccc(C(F)(F)F)cc3nc2-c2ccccc2)cc1OC | > 100 |  | > 100 | 15.5 | > 100 | > 100 |  |  | > 100 | > 100 | > 100 | > 100
O=C(O[C@H](/C=C/c1ccccc1)P1(=O)N(Cc2ccccc2)[C@@H]2CCCC[C@H]2N1Cc1ccccc1)c1ccccc1 | 9.68 |  | 6.39 | 6.72 | > 100 | 12.1 | 6.19 | > 100 | 7.43 | > 100 | > 100 | > 100
C=CCCCC12CCCc3cccc(c31)NC2=O (stereo not given) | > 100 |  | 47.3 | 31.8 |  | 26.4 | 39.8 |  | 36.8 | 50.4 | 30.8 | > 100
O=C1C(Cl)N(c2ccccc2)C1c1c[nH]c2ccccc12 (stereo not given) | > 100 |  | > 100 | > 100 | > 100 | > 100 | > 100 |  | > 100 | > 100 |  | > 100
CC(=O)Nc1ccc(Cl)c(Cl)c1 | > 100 |  | > 100 |  | > 100 | > 100 |  |  | > 100 | > 100 | > 100 | > 100
